Values joined by “and” are separate entries in the source; they are usually repeats but may differ in a detail not shown here. Equal entries are not always repeated.
Test system: Caco-2 cells
Test: Multiplex xMAP cytokine levels, Caco-2 epithelial barrier alone stimulated with LL-37
Format: cell-based, human
Settings: Caco-2 alone, 1 µM LL-37, 24 h, n=2
Experimental: Caco-2 cell line (ATCC HTB-37) was cultured in a humidified CO2-incubator (5% CO2, 37 °C) in the complete DMEM/F12 (1:1) medium (Gibco, Waltham, MA, USA) containing 10% fetal bovine serum (FBS, Gibco) and 1X antibiotic–antimycotic solution (Gibco). To stabilize the cell phenotype, Caco-2 cells have been subcultivated three times before seeding on the filter supports. Then, Caco-2 cells were seeded at a density of 2 × 10^5 cells/cm^2 onto 24-well Millicell cell culture inserts (PC, 0.4-μm pore size, 0.6 cm^2 surface area, cat. #PIHP01250) (Millipore, Burlington, MA, USA), precoated with 0.2% bovine gelatin (Sigma-Aldrich, Saint Louis, MO, USA). After seeding, Caco-2 cells were grown in the same complete medium with re-feeding every 2–3 days until polarization of the monolayer occurred. The functional polarity of the monolayers was developed when transepithelial electrical resistance (TEER) between the apical and basolateral surfaces of the monolayers reached […] as measured by the electrical resistance system Millicell-ERS Voltohmmeter (Millipore, Burlington, MA, USA). Grown cell monolayers were used in transport and cytokine production experiments between the 21st and 29th days.
Primary blood monocytes, moDCs, and NKT cells were seeded in 600 µL of complete RPMI-1640 with 10% Human AB serum (Capricorn Scientific, Ebsdorfergrund, Germany) and supplemented with 1X antibiotic–antimycotic solution into the wells of 24-well plates at a density of 3–7 × 10^5 cells/well 24 h before the experiment. Then, 24 h later, the medium in each well was replaced by the same medium with 1 µM of LL-37 for the sample wells or fresh medium alone for the control wells, and the permeable inserts with the Caco-2 monolayer with TEER > 400 Ω × cm^2, containing 400 μL of the complete medium in their apical chamber, were immediately placed into the appropriate wells. Also, inserts with the Caco-2 monolayer were placed in cell-free wells of 24-well plates in the same complete RPMI-1640 medium with or without 1 µM of LL-37 as controls. Cells were kept in a CO2-incubator (5% CO2, 37 °C) for another 24 h. Then, culture medium from each well was collected, centrifuged, and frozen at −70 °C.
To quantitatively evaluate a broad spectrum of analytes secreted by human cell cultures at the protein level, multiplex xMAP technology was used. The chosen panel (cat. #HCYTA-60K-PX48, Merck, Darmstadt, Germany) included 48 different magnetic beads with primary antibodies to the following cytokines, chemokines, and growth factors: CCL11 (Eotaxin-1), Flt-3 ligand, CX3CL1 (Fractalkine), sCD40L, FGF-2, EGF, GROα, GM-CSF, G-CSF, IL-1RA, IL-1α, IL-1β, IL-2, IL-3, IL-4, IL-5, IL-6, IL-7, CXCL8 (IL-8), IL-9, IL-10, IL-12p40, IL-12p70, IL-13, IL-15, IL-17A (CTLA8), IL-17E (IL-25), IL-17F, IL-18, IL-22, IL-27, IFNγ, IFNα2, CXCL10 (IP-10), CCL2 (MCP-1), CCL7 (MCP-3), CCL22 (MDC), CXCL9 (MIG), CCL3 (MIP-1α), CCL4 (MIP-1β), CCL5 (RANTES), M-CSF, PDGF-AA, PDGF-AB/BB, TNFα, TNFβ, TGFα, and VEGF-A. The assay was performed in accordance with the manufacturer’s instructions with overnight incubation of the samples with primary antibodies, and the plate was read on a MAGPIX System (Merck) using the xPONENT 4.2 software (Merck). The acquired fluorescence data were analyzed by the MILLIPLEX Analyst v5.1 software (Merck), which realized an advanced curve-fitting algorithm. Levels of the analytes in control and experimental samples were compared with an unpaired two-sample t-test using GraphPad Prism v.8.0.1 (GraphPad Software, Inc., San Diego, CA, USA). The p-values ≤ 0.05 were considered significant.

Question: “LL-37: the only human cathelicidin, host defense antimicrobial peptide of 37 a.a. residues, produced by solid-phase peptide synthesis” was tested. Which MIP-1b level (control 0.3) did it give?
Answer: Its MIP-1b level is 3.42 pg/mL.

Question: What about the IL-18 level (control 0.98) of the same substance?
Answer: The IL-18 level was 0.33 pg/mL.

Question: What about the IL-9 level (control 1.09) of the same substance?
Answer: The IL-9 level was 1.7 pg/mL.

Question: What about the IL-6 level (control 1.75) of the same substance?
Answer: The IL-6 level was 9.84 pg/mL.

Question: And the MIP-1a level (control 2.06)?
Answer: Its MIP-1a level is 5.65 pg/mL.

Question: What about the EGF level (control 2.26) of the same substance?
Answer: The EGF level was <1.60↓ pg/ml.

Question: And the IP-10 level (control 4.18)?
Answer: Its IP-10 level is 2.9 pg/mL.

Question: What about the IL-4 level (control 4.8) of the same substance?
Answer: Its IL-4 level is 6.56 pg/mL.

Question: And the MCP-3 level (control 7.84)?
Answer: The MCP-3 level was 8.72 pg/mL.

Question: And the sCD40L level (control 12.72)?
Answer: Its sCD40L level is 23.6 pg/mL.

Question: And the TNFb level (control 12.91, p = 0.02)?
Answer: Its TNFb level is 18.9 pg/mL and 18.87 pg/mL.

Question: What about the GROa level (control 18.09) of the same substance?
Answer: Its GROa level is 27.89 pg/mL.

Question: What about the PDGF-AB/BB level (control 22.83) of the same substance?
Answer: Its PDGF-AB/BB level is 29.35 pg/mL.

Question: What about the IL-13 level (control 25.51) of the same substance?
Answer: Its IL-13 level is 32.02 pg/mL.

Question: And the FGF-2 level (control 25.68)?
Answer: The FGF-2 level was 16.73 pg/mL.

Question: And the IL-22 level (control 27.2, p = 0.013)?
Answer: The IL-22 level was 39 pg/mL and 39.52 pg/mL.

Question: And the IL-8 level (control 28.45, p = 0.16)?
Answer: Its IL-8 level is 86 pg/mL and 86.32 pg/mL.

Question: And the IL-27 level (control 41.5)?
Answer: Its IL-27 level is 35.81 pg/mL.

Question: And the MCP-1 level (control 55.94)?
Answer: The MCP-1 level was 100.47 pg/mL.

Question: And the PDGF-AA level (control 164.04)?
Answer: Its PDGF-AA level is 149.4 pg/mL.

Question: And the VEGFa level (control 960.31)?
Answer: The VEGFa level was 2088 pg/mL.

Question: And the IL-7 level (control <0.30)?
Answer: The IL-7 level was <0.30↓ pg/ml.

Question: And the MDC level (control <0.31)?
Answer: Its MDC level is <0.31↓ pg/ml.

Question: What about the IL-5 level (control <0.35) of the same substance?
Answer: The IL-5 level was <0.35↓ pg/ml.

Question: And the IL-2 level (control <0.36)?
Answer: Its IL-2 level is <0.36↓ pg/ml.

Question: And the FLT-3L level (control <0.51)?
Answer: Its FLT-3L level is <0.51↓ pg/ml.

Question: And the IL-3 level (control <0.55)?
Answer: The IL-3 level was <0.55↓ pg/ml.

Question: What about the RANTES level (control <0.64) of the same substance?
Answer: The RANTES level was <0.64↓ pg/ml.

Question: What about the TGF-a level (control <0.68) of the same substance?
Answer: The TGF-a level was <0.68↓ pg/ml.

Question: What about the IL-17A level (control <0.70) of the same substance?
Answer: Its IL-17A level is <0.70↓ pg/ml.

Question: What about the IFNg level (control <0.73) of the same substance?
Answer: Its IFNg level is <0.73↓ pg/ml.

Question: And the IL-1b level (control <0.74)?
Answer: Its IL-1b level is <0.74↓ pg/ml.

Question: What about the GM-CSF level (control <0.76) of the same substance?
Answer: Its GM-CSF level is <0.76↓ pg/ml.

Question: And the IL-1RA level (control <0.93)?
Answer: Its IL-1RA level is <0.93↓ pg/ml.

Question: And the IL-1a level (control <1.30)?
Answer: The IL-1a level was <1.30↓ pg/ml.

Question: And the IL-10 level (control <1.35)?
Answer: Its IL-10 level is <1.35↓ pg/ml.

Question: What about the IL-15 level (control <1.54) of the same substance?
Answer: Its IL-15 level is <1.54↓ pg/ml.

Question: What about the “IL-12 (p70) level” value (control <1.71) of the same substance?
Answer: Its value is <1.71↓ pg/ml.

Question: And the G-CSF level (control <2.32)?
Answer: Its G-CSF level is <2.32↓ pg/ml.

Question: What about the Eotaxin level (control <2.91) of the same substance?
Answer: Its Eotaxin level is <2.91↓ pg/ml.

Question: And the “IL-12 (p40) level” value (control <3.33)?
Answer: The value was <3.33↓ pg/ml.

Question: And the MIG level (control <3.38)?
Answer: Its MIG level is <3.38↓ pg/ml.

Question: And the IFNa2 level (control <3.88)?
Answer: Its IFNa2 level is <3.88↓ pg/ml.

Question: And the TNFa level (control <3.88)?
Answer: Its TNFa level is <3.88↓ pg/ml.

Question: And the IL-17F level (control <12.19)?
Answer: The IL-17F level was <12.19↓ pg/ml.

Question: What about the Fractalkine level (control <18.09) of the same substance?
Answer: The Fractalkine level was <18.09↓ pg/ml.

Question: What about the IL-17E/IL-25 level (control <19.43) of the same substance?
Answer: The IL-17E/IL-25 level was <19.43↓ pg/ml.

Question: And the M-GSF level (control <24.21)?
Answer: Its M-GSF level is <24.21↓ pg/ml.

From publication PMC10526274, “Epithelial-Immune Cell Crosstalk Determines the Activation of Immune Cells In Vitro by the Human Cathelicidin LL-37 at Low Physiological Concentrations” (Biomolecules, 2023)
